Measurements published in US10888569B1, “Methods and compositions for treating cancer” (THE UNIVERSITY OF CHICAGO, priority 2017, dated 2021).
“Also recorded” adds a separate entry of the source.

Experiments:
[1] = tested on: non-malignant mammary epithelial cells (184A1 and MCF10A); test: Cell viability (calcein AM) of non-malignant mammary epithelial cells; type: cell-based, human; conditions: 48 hours
Description: (§1) Breast cancer cells (5,000 cells/well) and non-malignant mammary epithelial cells (8,000 cells/well) were plated on 96-well plates to observe growth of cells every 4 hours by phase contrast imaging using an IncuCyte Zoom Live Cell Analysis system (Essen Bioscience). After 24 hours of plating, inhibitors were added and monitored until control cells reached 100% confluent. To determine cell viability, cells were seeded in black walled 96-well plates overnight and treated with inhibitors for 48 hours. Calcein AM (R&D system) in PBS was then added and incubated for 1 hour at 37° C. Fluorescence was determined using a Victor3 plate reader (PerkinElmer) with excitation at 420 nm and emission at 520 nm. The absorbance was used to reflect live cell numbers and was normalized to those in control with vehicles and shown as relative viability (%).

C3(1)-TAg tumors = test: Transgenic TNBC mouse model C3(1)-TAg treated with metformin; type: in vivo; conditions: metformin 200 mg/kg/day, absence of hemin; very low BACH1 expression
Description: For a transgenic TNBC mouse model, C3(1)-TAg, mice (n=5/group) were treated with metformin (200 mg/kg/day), after 10 days of mice developed palpable tumors (about 25 mm^3), at age of 15 weeks. Tumor volume was assayed by caliper measurement twice per week.

[2] = in vivo; cited from earlier work
[3] = metformin 200-300 mg/kg; cited from earlier work
[4] = tested on: MB436-shBACH1 and BM1-shBACH1 (and shCont) xenograft TNBC tumors; test: BACH1-depleted xenograft TNBC tumors treated with metformin; type: in vivo, mouse
Description: (§2) Two million human breast cancer cells (MDA-MB-436-shCont, MDA-MB-436-shBACH1, BM1-shBACH1, or BM1-shCont) in 100 μl PBS were injected into the mammary fat pads of 5 to 6 weeks old athymic nude female mice (Charles River Laboratories). When tumors were about 20-30 or 50 mm^3 in volume, hemin (50 mg/kg/day) or vehicle (20 mM NaOH in phosphate buffered saline) was injected intraperitoneally for 10 days prior to metformin treatment for 8 weeks. Metformin (200 mg/kg for MDA-MB-436 cells or 300 mg/kg for BM1-cells) was provided in drinking water ad libidum. Tumor growth was monitored weekly by caliper measurement in two dimensions to generate ellipsoid volumes using an equation of vol.=0.4×(L×W^2).

[5] = tested on: TNBC cells (BM1, MB436, MB468, BT549); type: cell-based, human
Description: TNBC cell lines stably knocked down with lenti-viral shRNA for BACH1 were constructed and maintained as described previously. Gene expression analysis of cultured cells and isolated tumor tissues used a Reverse transcriptase kit followed by Roche96 cycler for real time mRNA quantification and Lycor imaging for immunoblotting. For in vitro cell viability assay with mitochondrial inhibitors, TNBC cells (2×10^3-5×10^3/well) seeded on 96 well plates overnight with culture media (DMEM with 25 mM Glucose) were treated with inhibitors in fresh culture media (DMEM with 1.25 mM Glucose) for 48 and 72 hours and stained with calcein AM and/or monitored for cellular confluency using an IncuCyte Zoom Live Cell Analysis system. Extracellular flux analyzer was used to assay metabolic phenotypes of BACH1-depleted TNBC cells and TNBC cells that are treated with hemin overnight before assays. For bioinformatics analysis using primary patient data cohort (TCGA), cBioportal and R were used.
as §1

MB436 xenograft tumors = conditions: hemin 50 mg/kg/day i.p. 10 consecutive days prior to metformin 200 mg/kg
Description: as §2

[6] = tested on: NAD+/NADH in shBACH1 TNBC cells; test: NAD/NADH-Glo measurement; type: cell-based, human; conditions: pyruvate 2.5 mM added to growth media
Description: NAD(H) was measured using the NAD/NADH-Glo Assay kit (Promega) in accordance with the manufacturer's protocol. Lactate produced by cells were measured using the media that 5×10^5 cells were plated on 6 well plates in 2 ml media containing 1.25 mM glucose for 3 days or overnight. Harvested media was used for L-Lactate Assay Kit I (Eton Bioscience). For glucose consumption measurement, media from the cells cultured in 12 well plates were freshly replenished with media containing 5 mM glucose and collected after 21 hours for glucose measurement using Glucose Assay Kit I (Eton Bioscience).

[7] = Cell viability (calcein AM) of non-malignant mammary epithelial cells; type: cell-based, human; conditions: human, non-malignant mammary epithelial cells (184A1 and MCF10A), read-out: reduction of cell viability of non-malignant mammary epithelial cells
Description: as §1

## CN(C)C(=N)N=C(N)N [metformin]
[1]
  viability of non-malignant mammary epithelial cells: did not alter the viability
C3(1)-TAg tumors
  sensitivity of C3(1)-TAg mice tumors: highly sensitive to metformin
[2]
  levels in metformin-treated human diabetic patients: ~10 µM
[3]
  mouse tumor and plasma concentrations: 3 to 12 µM
[4]; metformin 300 mg/kg/day
  growth of BM1 xenograft tumors expressing shBACH1: Comparable results
[4]; metformin 200-300 mg/kg in drinking water, within a week of administration, MB436-shBACH1
  growth of TNBC tumors stably expressing shBACH1: drastically suppressed; also recorded: reduction of MB436-shBACH1 tumor volume
[4]; metformin alone, 200-300 mg/kg in drinking water, control (shCont) xenografts
  control tumor growth: no effect on control tumor growth
[4]; shBACH1 MB436 xenograft mice following metformin treatment
  tumor-free mice: a significant fraction of shBACH xenograft mice were tumor-free; also recorded: a significant fraction of shBACH1 MB436 xenograft mice were tumor-free
[5]
  metformin response on overexpression of wt BACH1 in MB436-shBACH1 cells: generated a metformin-resistance phenotype
[5]; BM1-shBACH1 and MB436-shBACH1 cells
  resistance to metformin on expression of Mut-Bach1 following heme treatment: restored resistance to metformin
[5]; MB436 or BM1 cells
  sensitivity to metformin on BACH knockdown: increased sensitivity to metformin treatment
[5]; pyruvate 2.5 mM, shBACH1 TNBC cells
  inhibitory effect of metformin after addition of pyruvate to growth media: completely rescued the inhibitory effect of metformin
[5]; siRNA for COX15 or UQCRC1 in BM1-shBACH1 cells
  metformin resistance and cell growth after silencing COX15 or UQCRC1: completely restored metformin resistance
MB436 xenograft tumors
  breast tumor growth / volume: neither hemin nor metformin alone significantly altered tumor growth

## CC(=O)C(=O)O [pyruvate]
[6]
  NAD+ levels: increased

## C=C(C)[C@H]1Cc2c(ccc3c2O[C@@H]2COc4cc(OC)c(OC)cc4[C@@H]2C3=O)O1 [rotenone]
[7]
  cytotoxicity at 48 h: 25 to 50%
